Assays:
[1] = biological target: T1, PRMT5 (Homo sapiens, UniProt O14744); experiment: PRMT5 biochemical IC50 assay with SAM as cofactor; conditions: PRMT5, SAM as cofactor; read-out: SAM IC50
T1 construct: purchased Viva (custom protein)

[2] = biological target: T1, PRMT5; experiment: PRMT5 biochemical IC50 assay with MTA as cofactor; conditions: PRMT5, MTA as cofactor; read-out: MTA IC50
[3] = biological target: T1, PRMT5; experiment: PRMT5 biochemical IC50 assay with no cofactor; conditions: PRMT5, no cofactor; read-out: No Cofactor/rel IC50
Source text: Table 1 indicates IC50 values (μM) against PRMT5 for exemplary compounds in the presence of SAM as cofactor, with no cofactor, and with MTA as cofactor, respectively (columns 4-6). […] Ki values can be calculated from the IC50 values as described in the Examples section. As detailed in the Examples section, for the assay performed in the presence of SAM, IC50=Ki×1.5 (Ki=IC50/1.5).

[4] = system: HAP1 MTAP-intact cell line; experiment: SDMA in-cell western assay, HAP1 MTAP-intact; format: cell-based; conditions: Homo sapiens, HAP1, SDMA in-cell western, HAP1 MTAP-intact; read-out: MTAP HAP1 intact IC50
Procedure, shortened: (§1)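 Readout: in-cell western detection of SDMA. Cells: HAP1 expressing endogenous MTAP and an MTAP-null HAP1 counterpart. Output: IC50.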

[5] = system: HAP1 MTAP-deleted cell line; experiment: SDMA in-cell western assay, HAP1 MTAP-deleted; format: cell-based; conditions: for IC50: Homo sapiens, HAP1, SDMA in-cell western, HAP1 MTAP-deleted, read-out: HAP1 MTAP deleted IC50; for MTAP intact/deleted ratio: IC50 ratio HAP1 MTAP-intact / HAP1 MTAP-deleted, SDMA in-cell western
Procedure, shortened: as §1

[6] = system: HAP1 MTAP-deleted cell line; experiment: Viability assay, MTAP-deleted cell line; format: cell-based; conditions: Homo sapiens, HAP1, viability assay, MTAP-deleted cell line; read-out: HAP1 MTAP deleted viability
Source text: Table 1 additionally indicates IC50 values in a viability assay for the MTAP-deleted cell line (column 10), indicating the effect of treatment with compound on cell survival.

T1 sequence (O14744 whole entry): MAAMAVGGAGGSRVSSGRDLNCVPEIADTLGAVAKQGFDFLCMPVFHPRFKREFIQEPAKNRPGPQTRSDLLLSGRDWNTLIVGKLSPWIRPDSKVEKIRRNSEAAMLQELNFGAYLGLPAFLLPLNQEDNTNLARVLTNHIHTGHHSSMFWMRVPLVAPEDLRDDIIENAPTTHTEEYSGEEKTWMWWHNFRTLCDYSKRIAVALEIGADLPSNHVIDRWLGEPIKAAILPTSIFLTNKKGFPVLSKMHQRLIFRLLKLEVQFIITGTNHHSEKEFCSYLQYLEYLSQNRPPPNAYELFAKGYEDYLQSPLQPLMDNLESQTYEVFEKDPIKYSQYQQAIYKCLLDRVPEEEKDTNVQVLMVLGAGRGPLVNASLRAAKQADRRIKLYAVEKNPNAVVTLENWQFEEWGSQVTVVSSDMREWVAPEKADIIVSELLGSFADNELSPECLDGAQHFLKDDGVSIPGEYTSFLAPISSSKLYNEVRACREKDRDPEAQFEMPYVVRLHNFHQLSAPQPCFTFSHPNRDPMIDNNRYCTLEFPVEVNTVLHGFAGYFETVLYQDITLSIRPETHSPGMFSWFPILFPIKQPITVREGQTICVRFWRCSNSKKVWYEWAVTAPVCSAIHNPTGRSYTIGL
T1 sequence (Q9BQA1 whole entry partner): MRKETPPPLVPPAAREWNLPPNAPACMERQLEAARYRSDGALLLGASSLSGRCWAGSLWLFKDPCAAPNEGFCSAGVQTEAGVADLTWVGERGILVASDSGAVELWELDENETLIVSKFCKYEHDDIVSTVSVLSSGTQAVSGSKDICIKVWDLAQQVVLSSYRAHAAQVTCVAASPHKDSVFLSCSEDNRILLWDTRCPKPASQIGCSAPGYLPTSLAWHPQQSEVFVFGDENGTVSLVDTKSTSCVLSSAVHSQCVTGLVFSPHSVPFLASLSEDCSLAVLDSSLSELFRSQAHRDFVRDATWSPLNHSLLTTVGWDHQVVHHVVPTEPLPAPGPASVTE

SMILES | IC50 [1] [nM] | IC50 [2] [nM] | IC50 [3] [nM] | IC50 [4] [nM] | IC50 [5] [nM] | MTAP intact/deleted ratio [5] | IC50 [6] [µM]
C[C@@H]1CC[C@@H](c2ccc(Cl)c(C(F)(F)F)c2)N(C(=O)C(=O)Nc2cncc(C(N)=O)c2)C1 (racemic) [Compound 337, rac-5-{2-[(2R,5S)-2-[4-Chloro-3-(trifluoromethyl)phenyl]-5-methylpiperidin-1-yl]-2-oxoacetamido}pyridine-3-carboxamide] | > 500 | 50 to 500 | 50 to 500 | > 1000 | 100 to 1000 | A (an IC50 ratio greater than or equal to 10 fold) | 1 to 10
C[C@@H]1CC[C@@H](c2ccc(F)c(Cl)c2)N(C(=O)C(=O)Nc2cncc(C(N)=O)c2)C1 (racemic) [Compound 338, rac-5-{2-[(2R,5S)-2-(3-Chloro-4-fluorophenyl)-5-methylpiperidin-1-yl]-2-oxoacetamido}pyridine-3-carboxamide] | 50 to 500 | 50 to 500 | 50 to 500 | > 1000 | < 100 | A (an IC50 ratio greater than or equal to 10 fold) | 1 to 10
C[C@@H]1CC[C@@H](c2ccc3c(c2)CCCO3)N(C(=O)C(=O)Nc2cncc(C(N)=O)c2)C1 (racemic) [Compound 341, rac-5-{2-[(2R,5S)-2-(3,4-Dihydro-2H-1-benzopyran-6-yl)-5-methylpiperidin-1-yl]-2-oxoacetamido}pyridine-3-carboxamide] | 50 to 500 | 50 to 500 | 50 to 500 | > 1000 | < 100 | A (an IC50 ratio greater than or equal to 10 fold) | 1 to 10
NC(=O)c1cncc(NC(=O)C(=O)N2C[C@@H](CC(F)(F)F)CC[C@@H]2c2ccccc2)c1 (racemic) [Compound 342, 5-[[2-Oxo-2-[(2S,5S)-2-phenyl-5-(2,2,2-trifluoroethyl)-1-piperidyl]acetyl]amino]pyridine-3-carboxamide] | 50 to 500 | 50 to 500 | > 500 | > 1000 | 100 to 1000 | A (an IC50 ratio greater than or equal to 10 fold) | > 10
NC(=O)c1cncc(NC(=O)C(=O)N2C[C@@H](O)CC[C@@H]2c2ccccc2)c1 (racemic) [Compound 349, 5-[[2-[(2R,5S)-5-Hydroxy-2-phenyl-1-piperidyl]-2-oxo-acetyl]amino]pyridine-3-carboxamide] | > 500 | 50 to 500 | > 500 | > 1000 | > 1000 | C* (an IC50 ratio of less than 3 fold) | > 10
C[C@@H]1CC[C@@H](c2ccc3c(c2)OCC3)N(C(=O)C(=O)Nc2cncc(C(N)=O)c2)C1 (racemic) [Compound 405, rac-5-{2-[(2R,5S)-2-(2,3-Dihydro-1-benzofuran-6-yl)-5-methylpiperidin-1-yl]-2-oxoacetamido}pyridine-3-carboxamide] | 50 to 500 | 50 to 500 | 50 to 500 | > 1000 | < 100 | A (an IC50 ratio greater than or equal to 10 fold) | 1 to 10
C[C@@H]1CC[C@@H](c2ccc3sccc3c2)N(C(=O)C(=O)Nc2cncc(C(N)=O)c2)C1 (racemic) [Compound 409, rac-5-[[2-[(2S,5R)-2-(benzothiophen-5-yl)-5-methyl-1-piperidyl]-2-oxo-acetyl]amino]pyridine-3-carboxamide] | 50 to 500 | < 50 | 50 to 500 | > 1000 | < 100 | A (an IC50 ratio greater than or equal to 10 fold) | 1 to 10
C[C@@H]1CC[C@H](c2ccc(NCC(=O)N(C)C)cc2)N(C(=O)C(=O)Nc2cncc(C(N)=O)c2)C1 (racemic) [Compound 422, 5-[[2-[(2R,5R)-2-[4-[[2-(Dimethylamino)-2-oxo-ethyl]amino]phenyl]-5-methyl-1-piperidyl]-2-oxo-acetyl]amino]pyridine-3-carboxamide] | 50 to 500 | 50 to 500 | > 500 | > 1000 | 100 to 1000 | A (an IC50 ratio greater than or equal to 10 fold) | > 10
C[C@@H]1CC[C@H](c2ccc(N[C@@H]3CCN(C)C3=O)cc2)N(C(=O)C(=O)Nc2cncc(C(N)=O)c2)C1 (racemic) [Compound 427, 5-[[2-[(2R,5R)-5-Methyl-2-[4-[[(3R)-1-methyl-2-oxo-pyrrolidin-3-yl]amino]phenyl]-1-piperidyl]-2-oxo-acetyl]amino]pyridine-3-carboxamide] | 50 to 500 | 50 to 500 | 50 to 500 | > 1000 | 100 to 1000 | A (an IC50 ratio greater than or equal to 10 fold) | > 10
COc1cc(OC)cc([C@@H]2CC[C@@H](C)CN2C(=O)C(=O)Nc2cncc(C(N)=O)c2)c1 (racemic) [Compound 428, rac-5-{2-[(2R,5S)-2-(3,5-Dimethoxyphenyl)-5-methylpiperidin-1-yl]-2-oxoacetamido}pyridine-3-carboxamide] | > 500 | 50 to 500 | > 500 | > 1000 | 100 to 1000 | A (an IC50 ratio greater than or equal to 10 fold) | > 10
NC(=O)c1cncc(NC(=O)C(=O)N2CC[C@@H]3CCCC[C@@H]3C2)c1 (racemic) [Compound 429, 5-(2-(octahydroisoquinolin-2(1B)-yl)-2-oxoacetamido)nicotinamide] | 50 to 500 | 50 to 500 | > 500 | > 1000 | > 1000 | B (an IC50 ratio greater than or equal to 3 fold but lower than 10 fold) | > 10
C[C@@H]1CC[C@@H](c2ccc(N[C@@H]3CCN(C)C3=O)cc2)N(C(=O)C(=O)Nc2cncc(C(N)=O)c2)C1 (racemic) [Compound 430, 5-[[2-[(2S,5R)-5-Methyl-2-[4-[[(3R)-1-methyl-2-oxo-pyrrolidin-3-yl]amino]phenyl]-1-piperidyl]-2-oxo-acetyl]amino]pyridine-3-carboxamide] | 50 to 500 | 50 to 500 | 50 to 500 | > 1000 | < 100 | A (an IC50 ratio greater than or equal to 10 fold) | 1 to 10
C[C@@H]1CCN(C(=O)C(=O)Nc2cncc(C(N)=O)c2)[C@H](c2ccccc2)C1 (racemic) [Compound 442, 5-(2-(4-methyl-2-phenylpiperidin-1-yl)-2-oxoacetamido)nicotinamide] | 50 to 500 | 50 to 500 | 50 to 500 | > 1000 | 100 to 1000 | A (an IC50 ratio greater than or equal to 10 fold) | 1 to 10
C[C@@H]1CN(C(=O)C(=O)Nc2cncc(C(N)=O)c2)[C@@H](c2ccccc2)C[C@H]1O (racemic) [Compound 459, rac-5-[[2-[(2R,4R,5R)-4-hydroxy-5-methyl-2-phenyl-1-piperidyl]-2-oxo-acetyl]amino]pyridine-3-carboxamide] | 50 to 500 | 50 to 500 | 50 to 500 | > 1000 | 100 to 1000 | A (an IC50 ratio greater than or equal to 10 fold) | > 10
C[C@@H]1CN(C(=O)C(=O)Nc2cncc(C(N)=O)c2)[C@@H](c2ccccc2)C[C@@H]1O (racemic) [Compound 470, rac-5-[[2-[(2R,4S,5R)-4-hydroxy-5-methyl-2-phenyl-1-piperidyl]-2-oxo-acetyl]amino]pyridine-3-carboxamide] | 50 to 500 | 50 to 500 | 50 to 500 | > 1000 | 100 to 1000 | A (an IC50 ratio greater than or equal to 10 fold) | > 10
C[C@@H]1CC[C@@H](c2ccccc2)N(C(=O)C(=O)Nc2cnc(O)c(C(N)=O)c2)C1 (racemic) [Compound 494, rac-2-hydroxy-5-(2-((2R,5S)-5-methyl-2-phenylpiperidin-1-yl)-2-oxoacetamido)nicotinamide] | > 500 | 50 to 500 | 50 to 500 | > 1000 | > 1000 | C (an IC50 ratio of less than 3 fold) | > 10
CC[C@@H]1CCN(C(=O)C(=O)Nc2cncc(C(N)=O)c2)[C@H](c2ccccc2)C1 (racemic) [Compound 497, rac-5-[[2-[(2S,4R)-4-ethyl-2-phenyl-1-piperidyl]-2-oxo-acetyl]amino]pyridine-3-carboxamide] | 50 to 500 | < 50 | 50 to 500 | > 1000 | 100 to 1000 | A (an IC50 ratio greater than or equal to 10 fold) | 1 to 10
